The NIST ThermoML archive (doi:10.1016/j.fluid.2017.08.016)
Several values for one entry are separate records, joined by “and”; a condition that tells them apart may be missing. Identical values can stand only once. ± gives the expanded uncertainty stated by the source.

Details: for mass density: 101.33 kPa, Liquid, Vibrating tube method; for surface tension liquid-gas: Pendant drop shape

COCCOCCOC [2,5,8-trioxanonane]
Details | mass density | surface tension liquid-gas [mN/m]
303.15 K | 933.98 ± 1.9 kg/m3 | –
303.16 K | 933.65 ± 0.94 kg/m3 | 28.54 ± 0.74
308.15 K | 928.95 ± 1.9 kg/m3 | –
313.15 K | 923.97 ± 1.9 kg/m3 | –
313.16 K | 923.61 ± 0.93 kg/m3 | 27.57 ± 0.72
318.15 K | 918.94 ± 1.8 kg/m3 | –
323.15 K | 913.9 ± 1.8 kg/m3 | –
323.17 K | 913.51 ± 0.92 kg/m3 | 26.27 ± 0.68
328.15 K | 908.84 ± 1.8 kg/m3 | –
333.15 K | 903.76 ± 1.8 kg/m3 and 903.38 ± 0.91 kg/m3 | 24.98 ± 0.65
338.15 K | 898.67 ± 1.8 kg/m3 | –
343.15 K | 893.55 ± 1.8 kg/m3 and 893.13 ± 0.9 kg/m3 | 23.79 ± 0.62
348.15 K | 888.41 ± 1.8 kg/m3 | –
353.15 K | 883.24 ± 1.8 kg/m3 | –
353.16 K | 882.79 ± 0.89 kg/m3 | 22.87 ± 0.6
358.15 K | 878.04 ± 1.8 kg/m3 | –
363.14 K | 872.36 ± 0.88 kg/m3 | 21.68 ± 0.57
363.15 K | 872.81 ± 1.8 kg/m3 | –
373.14 K | 861.79 ± 0.87 kg/m3 | 20.53 ± 0.54
383.16 K | 851.06 ± 0.86 kg/m3 | 19.43 ± 0.51
393.15 K | 840.22 ± 0.85 kg/m3 | 18.37 ± 0.49

CCCCC(CC)COC(C)=O (centres undefined) [2-ethylhexyl acetate]
Details | mass density | surface tension liquid-gas [mN/m]
303.15 K | 863.51 ± 1.7 kg/m3 | –
303.17 K | 863.56 ± 0.89 kg/m3 | 25.15 ± 0.66
308.15 K | 859.15 ± 1.7 kg/m3 | –
313.15 K | 854.77 ± 1.7 kg/m3 | –
313.16 K | 854.84 ± 0.88 kg/m3 | 24.23 ± 0.64
318.15 K | 850.39 ± 1.7 kg/m3 | –
323.15 K | 846.01 ± 1.7 kg/m3 | –
323.16 K | 846.08 ± 0.87 kg/m3 | 23.23 ± 0.62
328.15 K | 841.61 ± 1.7 kg/m3 | –
333.15 K | 837.2 ± 1.7 kg/m3 and 837.29 ± 0.87 kg/m3 | 22.28 ± 0.59
338.15 K | 832.78 ± 1.7 kg/m3 | –
343.15 K | 828.35 ± 1.7 kg/m3 and 828.44 ± 0.86 kg/m3 | 21.27 ± 0.57
348.15 K | 823.91 ± 1.7 kg/m3 | –
353.15 K | 819.45 ± 1.6 kg/m3 | –
353.16 K | 819.54 ± 0.85 kg/m3 | 20.22 ± 0.54
358.15 K | 814.98 ± 1.6 kg/m3 | –
363.15 K | 810.49 ± 1.6 kg/m3 and 810.59 ± 0.84 kg/m3 | 19.26 ± 0.52
373.15 K | 801.56 ± 0.83 kg/m3 | 18.35 ± 0.49
383.15 K | 792.46 ± 0.82 kg/m3 | 17.44 ± 0.47
393.16 K | 783.27 ± 0.82 kg/m3 | 16.59 ± 0.45

COCCO [2-methoxyethan-1-ol]
Details | mass density [kg/m3] | surface tension liquid-gas [mN/m]
303.15 K | 956.73 ± 1.9 | –
303.16 K | 956.41 ± 0.96 | 30.06 ± 0.78
308.15 K | 952.09 ± 1.9 | –
313.14 K | 947.1 ± 0.95 | 29.01 ± 0.75
313.15 K | 947.42 ± 1.9 | –
318.15 K | 942.72 ± 1.9 | –
323.15 K | 937.98 ± 1.9 | –
323.16 K | 937.62 ± 0.94 | 27.98 ± 0.72
328.15 K | 933.21 ± 1.9 | –
333.14 K | 928.03 ± 0.93 | 26.9 ± 0.7
333.15 K | 928.39 ± 1.9 | –
338.15 K | 923.54 ± 1.9 | –
343.15 K | 918.64 ± 1.8 | –
343.16 K | 918.23 ± 0.92 | 25.88 ± 0.67
348.15 K | 913.69 ± 1.8 | –
353.15 K | 908.7 ± 1.8 | –
353.16 K | 908.26 ± 0.91 | 24.7 ± 0.64
358.15 K | 903.65 ± 1.8 | –
363.15 K | 898.55 ± 1.8 | –
363.16 K | 898.09 ± 0.9 | 23.6 ± 0.62
373.16 K | 887.7 ± 0.89 | 22.56 ± 0.59
383.17 K | 877.05 ± 0.88 | 21.58 ± 0.56
393.17 K | 866.15 ± 0.87 | 20.51 ± 0.54

CCOC(=O)CCC(=O)OCC [diethyl butanedioate]
Details | mass density | surface tension liquid-gas [mN/m]
303.15 K | 1029.59 ± 2.1 kg/m3 | –
303.16 K | 1029.57 ± 1.1 kg/m3 | 30.62 ± 0.8
308.15 K | 1024.4 ± 2.1 kg/m3 | –
313.15 K | 1019.2 ± 2 kg/m3 and 1019.2 ± 1.1 kg/m3 | 29.55 ± 0.78
318.15 K | 1014.01 ± 2 kg/m3 | –
323.15 K | 1008.81 ± 2 kg/m3 and 1008.81 ± 1 kg/m3 | 28.42 ± 0.75
328.15 K | 1003.6 ± 2 kg/m3 | –
333.15 K | 998.39 ± 2 kg/m3 | –
333.17 K | 998.37 ± 1 kg/m3 | 27.41 ± 0.72
338.15 K | 993.16 ± 2 kg/m3 | –
343.15 K | 987.93 ± 2 kg/m3 | –
343.17 K | 987.91 ± 1 kg/m3 | 26.33 ± 0.69
348.15 K | 982.7 ± 2 kg/m3 | –
353.15 K | 977.45 ± 2 kg/m3 | –
353.16 K | 977.44 ± 1 kg/m3 | 25.12 ± 0.66
358.15 K | 972.19 ± 2 kg/m3 | –
363.15 K | 966.91 ± 1.9 kg/m3 | –
363.16 K | 966.9 ± 0.99 kg/m3 | 24.02 ± 0.64
373.14 K | 956.34 ± 0.98 kg/m3 | 22.95 ± 0.61
383.15 K | 945.69 ± 0.97 kg/m3 | 21.96 ± 0.58
393.17 K | 934.96 ± 0.96 kg/m3 | 21.03 ± 0.56

Cc1ccccc1 [toluene]
Details | surface tension liquid-gas [mN/m]
303.16 K | 27.15 ± 0.42
308.15 K | 26.51 ± 0.42
313.15 K | 25.98 ± 0.41
318.13 K | 25.42 ± 0.4
323.15 K | 24.89 ± 0.39
328.16 K | 24.34 ± 0.38
333.14 K | 23.65 ± 0.38
338.16 K | 23.08 ± 0.37
343.16 K | 22.55 ± 0.36
348.16 K | 21.98 ± 0.35
353.15 K | 21.45 ± 0.34
358.15 K | 20.92 ± 0.34
363.16 K | 20.37 ± 0.33
368.14 K | 19.86 ± 0.32
